According to PubChem BioAssay AID248 (DTP/NCI, 2004):
Values joined by “and” are separate entries in the source; they are usually repeats but may differ in a detail not shown here. Identical values can stand only once. Inconclusive results and toxic doses are left out. Cut-off read from the data, not from the text of the source: active = T/C of 150% or more; inactive = T/C below 125%.

Tested on: L1210 leukemia ip in BDF1 mice, survival T/C
Assay: NCI In Vivo Anticancer Drug Screen. Data for tumor model L1210 Leukemia (intraperitoneal) in B6D2F1 (BDF1) mice
Conditions: endpoint: mean survival time, higher = longer survival
Method in brief: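 Ratio derived from survival: compound-dosed mice over vehicle-dosed mice, all bearing a transplantable tumor.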

[1] = dose: 100.0 mg/kg/injection, schedule: Q01DX009 (ip), vehicle: saline
[2] = dose: 100.0 mg/kg/injection, schedule: Q04DX003 (ip), vehicle: saline
[3] = dose: 200.0 mg/kg/injection, schedule: Q04DX003 (ip), vehicle: saline
[4] = dose: 400.0 mg/kg/injection, schedule: Q04DX003 (ip), vehicle: saline

Measured: T/C

Cc1cc(O)ccc1SC#N
inactive: dose: 3.12 mg/kg/injection, schedule: Q04DX003 (ip), vehicle: saline + alcohol 97 % of control | dose: 6.25 mg/kg/injection, schedule: Q04DX003 (ip), vehicle: saline + alcohol 101 % of control | dose: 12.5 mg/kg/injection, schedule: Q04DX003 (ip), vehicle: saline + alcohol 101 % of control

O=C(CCC(C(=O)Nc1ccccc1)C(O)(c1ccccc1)c1ccccc1)Nc1ccccc1 (centres undefined)
inactive: dose: 100.0 mg/kg/injection, schedule: Q01DX001 (ip), vehicle: other 91 % of control | dose: 200.0 mg/kg/injection, schedule: Q01DX001 (ip), vehicle: other 91 % of control | dose: 400.0 mg/kg/injection, schedule: Q01DX001 (ip), vehicle: other 89 % of control

CC(C)CNC(=O)Cc1ccc(N(CCCl)CCCl)cc1
inactive: dose: 100.0 mg/kg/injection, schedule: Q04DX003 (ip), vehicle: Klucel (hydroxypropylcellulose) (HPC) 108 % of control | dose: 200.0 mg/kg/injection, schedule: Q04DX003 (ip), vehicle: Klucel (hydroxypropylcellulose) (HPC) 108 % of control | dose: 400.0 mg/kg/injection, schedule: Q04DX003 (ip), vehicle: Klucel (hydroxypropylcellulose) (HPC) 112 % of control

NC(=O)OCC#CCN1CCCC1
inactive: dose: 5.0 mg/kg/injection, schedule: Q04DX003 (ip), vehicle: saline with Tween-80 96 % of control | dose: 10.0 mg/kg/injection, schedule: Q04DX003 (ip), vehicle: saline with Tween-80 98 % of control | dose: 20.0 mg/kg/injection, schedule: Q04DX003 (ip), vehicle: saline with Tween-80 93 % of control

Nc1cc(S(=O)(=O)O)cc2cc(S(=O)(=O)O)c(N=Nc3cc(S(=O)(=O)O)cc4cc(S(=O)(=O)O)cc(O)c34)c(O)c12
inactive: [1] 105 % of control | [2] 96 % of control | dose: 200.0 mg/kg/injection, schedule: Q01DX009 (ip), vehicle: saline 94 % of control | [3] 91 % of control | dose: 400.0 mg/kg/injection, schedule: Q01DX009 (ip), vehicle: saline 95 % of control | [4] 96 % of control

CN(C)c1ccc(-c2cccc[n+]2C)cc1
inactive: dose: 1.56 mg/kg/injection, schedule: Q01DX009 (ip), vehicle: saline 104 % of control | dose: 3.13 mg/kg/injection, schedule: Q01DX009 (ip), vehicle: saline 103 % of control | dose: 6.25 mg/kg/injection, schedule: Q01DX009 (ip), vehicle: saline 104 % of control

Nn1c(=S)[nH][nH]c1=S
inactive: [2] 97 % of control | [3] 103 % of control | [4] 98 % of control

Cc1ccn(C)c(=O)c1
inactive: [2] 105 % of control | [3] 103 % of control | [4] 102 % of control

Cc1c(C(=O)O)no[n+]1[O-]
inactive: dose: 100.0 mg/kg/injection, schedule: Q04DX002 (ip), vehicle: saline 104 % of control | dose: 200.0 mg/kg/injection, schedule: Q04DX002 (ip), vehicle: saline 95 % of control | dose: 400.0 mg/kg/injection, schedule: Q04DX002 (ip), vehicle: saline 87 % of control

CC(=O)CC(=O)Nc1ccc([N+](=O)[O-])cc1
inactive: dose: 100.0 mg/kg/injection, schedule: Q01DX009 (ip), vehicle: saline with Tween-80 97 % of control | [2] 96 % of control | dose: 200.0 mg/kg/injection, schedule: Q01DX009 (ip), vehicle: saline with Tween-80 111 % of control | [3] 96 % of control | dose: 400.0 mg/kg/injection, schedule: Q01DX009 (ip), vehicle: saline with Tween-80 102 % of control | [4] 92 % of control

Cc1cccc(SC(=O)Nc2ccc(Cl)cc2C)c1
inactive: dose: 12.5 mg/kg/injection, schedule: Q01DX009 (ip), vehicle: saline with Tween-80 91 % of control | dose: 25.0 mg/kg/injection, schedule: Q01DX009 (ip), vehicle: saline with Tween-80 95 % of control | dose: 50.0 mg/kg/injection, schedule: Q01DX009 (ip), vehicle: saline with Tween-80 119 % of control

C=C(C)COC(=O)Nc1cccc(O)c1
inactive: dose: 100.0 mg/kg/injection, schedule: Q01DX001 (ip), vehicle: saline + alcohol 96 % of control | dose: 200.0 mg/kg/injection, schedule: Q01DX001 (ip), vehicle: saline + alcohol 96 % of control

COc1ccc(Cc2nccc3c(OC)c(OC)ccc23)cc1OC
inactive: dose: 25.0 mg/kg/injection, schedule: Q01DX009 (ip), vehicle: saline 98 % of control | dose: 25.0 mg/kg/injection, schedule: Q04DX003 (ip), vehicle: saline 107 % of control | dose: 50.0 mg/kg/injection, schedule: Q01DX009 (ip), vehicle: saline 102 % of control | dose: 50.0 mg/kg/injection, schedule: Q04DX003 (ip), vehicle: saline 93 % of control | [1] 93 % of control | [2] 96 % of control and 103 % of control | [3] 86 % of control

O=c1[nH]c2cc(Br)ccc2c2ccccc12
inactive: dose: 100.0 mg/kg/injection, schedule: Q01DX001 (ip), vehicle: carboxymethylcellulose (CMC) 95 % of control | dose: 200.0 mg/kg/injection, schedule: Q01DX001 (ip), vehicle: carboxymethylcellulose (CMC) 101 % of control | dose: 400.0 mg/kg/injection, schedule: Q01DX001 (ip), vehicle: carboxymethylcellulose (CMC) 94 % of control

O=C1C=C(N2CCCC2)CCC1
inactive: dose: 75.0 mg/kg/injection, schedule: Q01DX001 (ip), vehicle: saline 107 % of control | dose: 150.0 mg/kg/injection, schedule: Q01DX001 (ip), vehicle: saline 109 % of control

O=C(Nc1ccccc1F)N1CCCCC1
inactive: dose: 100.0 mg/kg/injection, schedule: Q01DX009 (ip), vehicle: gum acacia 97 % of control | dose: 200.0 mg/kg/injection, schedule: Q01DX009 (ip), vehicle: gum acacia 97 % of control | dose: 400.0 mg/kg/injection, schedule: Q01DX009 (ip), vehicle: gum acacia 100 % of control

O=c1cc(/C=C/c2ccc3ccccc3n2)c2ccccc2[nH]1
inactive: dose: 100.0 mg/kg/injection, schedule: Q01DX001 (ip), vehicle: saline 98 % of control | dose: 200.0 mg/kg/injection, schedule: Q01DX001 (ip), vehicle: saline 96 % of control | dose: 400.0 mg/kg/injection, schedule: Q01DX001 (ip), vehicle: saline 102 % of control

C=C1C(=O)OC2C3OC(C)(CCC(O)C3COC(C)=O)CC(OC(=O)/C(=C/C)COC(C)=O)C12 (centres undefined)
inactive: dose: 6.25 mg/kg/injection, schedule: Q01DX009 (ip), vehicle: Klucel (hydroxypropylcellulose) (HPC) 100 % of control | dose: 12.5 mg/kg/injection, schedule: Q01DX009 (ip), vehicle: Klucel (hydroxypropylcellulose) (HPC) 97 % of control | dose: 25.0 mg/kg/injection, schedule: Q01DX009 (ip), vehicle: Klucel (hydroxypropylcellulose) (HPC) 103 % of control

COC(=O)C1C2CCC(C2)C1C(=O)OC (centres undefined)
inactive: dose: 100.0 mg/kg/injection, schedule: Q04DX002 (ip), vehicle: Klucel (hydroxypropylcellulose) (HPC) 111 % of control | dose: 200.0 mg/kg/injection, schedule: Q04DX002 (ip), vehicle: Klucel (hydroxypropylcellulose) (HPC) 93 % of control | dose: 400.0 mg/kg/injection, schedule: Q04DX002 (ip), vehicle: Klucel (hydroxypropylcellulose) (HPC) 107 % of control

O=NN(C(=O)NC1CCCCC1Cl)C1CCCCC1Cl (centres undefined)
inactive: dose: 8.0 mg/kg/injection, schedule: Q01DX001 (ip), vehicle: carboxymethylcellulose (CMC) 102 % of control | dose: 12.0 mg/kg/injection, schedule: Q01DX001 (ip), vehicle: carboxymethylcellulose (CMC) 106 % of control | dose: 18.0 mg/kg/injection, schedule: Q01DX001 (ip), vehicle: carboxymethylcellulose (CMC) 106 % of control | dose: 26.0 mg/kg/injection, schedule: Q01DX001 (ip), vehicle: carboxymethylcellulose (CMC) 106 % of control | dose: 40.0 mg/kg/injection, schedule: Q01DX001 (ip), vehicle: carboxymethylcellulose (CMC) 107 % of control | dose: 60.0 mg/kg/injection, schedule: Q01DX001 (ip), vehicle: carboxymethylcellulose (CMC) 98 % of control | dose: 93.0 mg/kg/injection, schedule: Q01DX001 (ip), vehicle: carboxymethylcellulose (CMC) 104 % of control | dose: 187.0 mg/kg/injection, schedule: Q01DX001 (ip), vehicle: carboxymethylcellulose (CMC) 102 % of control | dose: 375.0 mg/kg/injection, schedule: Q01DX001 (ip), vehicle: carboxymethylcellulose (CMC) 96 % of control
